This is an account of results in patent US10233186B2, “Inhibitors of activin receptor-like kinase” (BLUEPRINT MEDICINES CORPORATION, priority 2016, dated 2019).

The target of test [1] is T1, ALK2 R206H (GST-tagged mutant ALK2) (Homo sapiens, UniProt Q04771, R206H).
T1 construct: purchased Carna Bioscience or ThermoFisher 09-148 or PV6232
T1 sequence (Q04771 21-509 R206H): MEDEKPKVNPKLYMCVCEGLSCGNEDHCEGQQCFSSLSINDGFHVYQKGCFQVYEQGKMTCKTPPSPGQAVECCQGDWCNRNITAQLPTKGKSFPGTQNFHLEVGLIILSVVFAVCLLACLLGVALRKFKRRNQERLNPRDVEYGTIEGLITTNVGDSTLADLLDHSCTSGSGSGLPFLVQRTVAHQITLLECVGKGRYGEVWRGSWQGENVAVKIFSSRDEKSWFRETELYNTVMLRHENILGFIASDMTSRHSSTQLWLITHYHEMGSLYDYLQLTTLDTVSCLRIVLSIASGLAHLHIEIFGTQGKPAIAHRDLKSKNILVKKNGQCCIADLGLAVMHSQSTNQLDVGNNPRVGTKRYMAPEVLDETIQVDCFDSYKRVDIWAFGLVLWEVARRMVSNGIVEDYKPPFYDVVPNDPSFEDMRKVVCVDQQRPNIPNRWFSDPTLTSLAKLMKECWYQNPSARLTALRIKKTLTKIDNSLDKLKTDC
Put plainly: ALK binding assay (LANTHASCREEN TR-FRET competitive binding, displacement of Kinase Tracer 178). The conditions noted are these: ALK2 R206H, LANTHASCREEN TR-FRET competitive binding; read-out: Binding Assay (IC50).

In a further test the target is T2, human ALK2 R206H (Homo sapiens, UniProt Q04771, R206H).
T2 construct: expressed in transfected cells; host or cells: HEK293 (ATCC CRL1573), lentivirus transduction, blasticidin selection
T2 sequence (Q04771 21-509 R206H): T1 sequence (Q04771 21-509 R206H)
Description: Cell-based ALK2-R206H cell activity assay (Smad1-Ser463/Ser465 phosphorylation by AlphaLISA in HEK293-ALK2-R206H cells). Conditions: read-out: Cell Line (Cell Assay IC50). In short, it runs like this:
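Stable HEK293 cells expressing C-terminally FLAG-tagged human ALK2 R206H (lentiviral, blasticidin-selected) were treated with compounds in 10-point, 3-fold dilutions from 10 μM or 1 μM top, in duplicate. Smad1 Ser463/Ser465 phosphorylation was read by AlphaLISA.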
Background: Alpha assays give light when donor and acceptor beads are brought close together.

Some results are limits rather than exact numbers.

Broadly, the IC50 is the concentration needed to halve the response being measured.

For `CCN1CCN(c2ccc(-c3cc4c(N5CCN(C(=O)N6CCC6)CC5)ccnn4c3)cc2)CC1` [Compound 272], the IC50 in test [1] lay within 10 to 50 nM; on human ALK2 R206H, 100 to 500 nM.

For `O=C(C1CC1)N1CCN(c2ccnn3cc(-c4ccc(N5CCN(CCO)CC5)cc4)cc23)CC1` [Compound 274, cyclopropyl(4-(6-(4-(4-(2-hydroxyethyl)piperazin-1-yl)phenyl)pyrrolo[1,2-b]pyridazin-4-yl)piperazin-1-yl)methanone], the IC50 was < 10 nM in test [1] and 100 to 500 nM on human ALK2 R206H.

As to `CCNC(=O)N1CCN(c2ccnn3cc(-c4ccc(C5CCN(C(C)C)CC5)cc4)cc23)CC1` [Compound 275, N-ethyl-4-(6-(4-(1-isopropylpiperidin-4-yl)phenyl)pyrrolo[1,2-b]pyridazin-4-yl)piperazine-1-carboxamide], the figures for the IC50 (in test [1]; on human ALK2 R206H) were < 10 nM and < 100 nM, respectively.

In the case of `CCNC(=O)N1CCN(c2ccnn3cc(-c4ccc([C@@H]5CCCN(C(C)C)C5)cc4)cc23)CC1` [Compound 276], the IC50 is < 10 nM in test [1] and < 100 nM at human ALK2 R206H.

`CCNC(=O)N1CCN(c2ccnn3cc(-c4ccc([C@H]5CCCN(C(C)C)C5)cc4)cc23)CC1` [Compound 277]: the IC50 in test [1] was < 10 nM; at human ALK2 R206H, < 100 nM.

For `CCN1CCC(c2ccc(-c3cc4c(N5CCN(C(=O)C6CC6)CC5)ccnn4c3)cc2)C(F)C1` (stereo not shown) [Compound 278], the IC50 in test [1] was < 10 nM; on human ALK2 R206H, < 100 nM.

In the case of `CCN1CC[C@H](c2ccc(-c3cc4c(N5CCN(C(=O)C6CC6)CC5)ccnn4c3)cc2)C(F)C1` (stereo partly shown) [Compound 279], the IC50 in test [1] lay within 10 to 50 nM; at human ALK2 R206H, 100 to 500 nM.

Take `CCN1CC[C@@H](c2ccc(-c3cc4c(N5CCN(C(=O)C6CC6)CC5)ccnn4c3)cc2)C(F)C1` (stereo partly shown) [Compound 280]: the IC50 in test [1] lay within 10 to 50 nM; on human ALK2 R206H, 100 to 500 nM.

For the compound `CCN1CCC(c2ccc(-c3cc4c(N5CCN(C(=O)[C@H]6C[C@H]6F)CC5)ccnn4c3)cc2)CC1` [Compound 281], the figures for the IC50 (in test [1]; at human ALK2 R206H) were < 10 nM and < 100 nM, respectively.

Turning to `CC(C)N1CC(F)C(c2ccc(-c3cc4c(N5CCN(C(=O)C6CC6)CC5)ccnn4c3)cc2)C1` (stereo not shown) [Compound 282], the IC50 in test [1] was < 10 nM; on human ALK2 R206H, < 100 nM.

As for `CC(C)N1CC[C@@H](c2ccc(-c3cc4c(N5CCN(C(=O)C6CC6)CC5)ccnn4c3)cc2F)C1` [Compound 283], the IC50 in test [1] was < 10 nM; at human ALK2 R206H, 100 to 500 nM.

With `CC(C)N1CC[C@H](c2ccc(-c3cc4c(N5CCN(C(=O)C6CC6)CC5)ccnn4c3)cc2F)C1` [Compound 284], the IC50 in test [1] is < 10 nM; at human ALK2 R206H, < 100 nM.

As to `CCN1CCC(c2ccc(-c3cc4c(N5CCN(C(=O)OC(C)C)CC5)ccnn4c3)cc2)CC1` [Compound 285], the IC50 was < 10 nM in test [1] and < 100 nM at human ALK2 R206H.

For the compound `CCOC(=O)N1CCN(c2ccnn3cc(-c4ccc(C5CCN(CC)CC5)cc4)cc23)C[C@H]1C` [Compound 286], the results for the IC50 (in test [1]; at human ALK2 R206H) were < 10 nM and 100 to 500 nM, respectively.

Regarding `CCOC(=O)N1CCN(c2ccnn3cc(-c4ccc([C@@H]5CCCN(C(C)C)C5)cc4)cc23)CC1` [Compound 287], the IC50 in test [1] is < 10 nM; at human ALK2 R206H, < 100 nM.

Turning to `CCOC(=O)N1CCN(c2ccnn3cc(-c4ccc([C@H]5CCCN(C(C)C)C5)cc4)cc23)CC1` [Compound 288], the figures for the IC50 (in test [1]; at human ALK2 R206H) were < 10 nM and < 100 nM, respectively.

As to `CCNC(=O)N1CCN(c2ccnn3cc(-c4ccc(N5CCN(C(C)C)CC5)cc4)cc23)CC1` [Compound 289], the values for the IC50 (in test [1]; on human ALK2 R206H) were < 10 nM and < 100 nM, respectively.

Take `CCNC(=O)N1CCN(c2ccnn3cc(-c4ccc(C5CCN(C(C)C)CC5)cn4)cc23)CC1` [Compound 290]: the IC50 in test [1] was < 10 nM; at human ALK2 R206H, < 100 nM.

On to `CCN1CCN(c2ccc(-c3cc4c(N5CCN(C(=O)[C@@H]6C[C@H]6F)CC5)ccnn4c3)cc2)CC1` [Compound 292], for which the IC50 is < 10 nM in test [1] and < 100 nM on human ALK2 R206H.

As to `CCN1CCN(c2ccc(-c3cc4c(N5CCN(C(=O)[C@H]6C[C@H]6F)CC5)ccnn4c3)cc2)CC1` [Compound 293], the values for the IC50 (in test [1]; at human ALK2 R206H) were < 10 nM and < 100 nM, respectively.

Take `CCOC(=O)N1CCN(c2ccnn3cc(-c4ccc(N5CCN(C(C)C)CC5)cc4)cc23)CC1` [Compound 295]: the IC50 in test [1] is < 10 nM; at human ALK2 R206H, < 100 nM.

For the compound `O=C(C1CC(F)(F)C1)N1CCN(c2ccnn3cc(-c4ccc(N5CCNCC5)cc4)cc23)CC1` [Compound 296], the half-inhibitory concentration (IC50) is < 10 nM in test [1] and 100 to 500 nM at human ALK2 R206H.

With `O=C(C1CC1)N1CCN(c2ccnn3cc(-c4ccc(N5CCNCC5C(F)F)cc4)cc23)CC1` (stereo not shown) [Compound 297], the IC50 in test [1] was < 10 nM; at human ALK2 R206H it was < 100 nM.

Take `CC(C)N1CC[C@@H](c2ccc(-c3cc4c(N5CCN(C(=O)[C@H]6C[C@@H]6C#N)CC5)ccnn4c3)cc2)C1` [Compound 298]: the IC50 was < 10 nM in test [1] and < 100 nM on human ALK2 R206H.

As to `CCN1CCC(c2ccc(-c3cc4c(N5CCN(C(=O)N6CC(C#N)C6)CC5)ccnn4c3)cc2)C1` (stereo not shown) [Compound 300, 1-(4-(6-(4-(1-ethylpyrrolidin-3-yl)phenyl)pyrrolo[1,2-b]pyridazin-4-yl)piperazine-1-carbonyl)azetidine-3-carbonitrile], the IC50 in test [1] is < 10 nM; at human ALK2 R206H, < 100 nM.

Regarding `CCN1CCN(c2ccc(-c3cc4c(N5CCN(C(=O)[C@H]6C[C@H]6C#N)CC5)ccnn4c3)cc2)CC1` [Compound 301], the IC50 in test [1] was < 10 nM; on human ALK2 R206H it was 100 to 500 nM.

As to `CCN1CCN(c2ccc(-c3cc4c(N5CCN(C(=O)[C@H]6C[C@@H]6C#N)CC5)ccnn4c3)cc2)CC1` [Compound 302], the IC50 in test [1] is < 10 nM; on human ALK2 R206H, < 100 nM.

Take `CCN1CC[C@@H](c2ccc(-c3cc4c(N5CCN(C(=O)N6CC(C#N)C6)CC5)ccnn4c3)cc2)C1` [Compound 303]: the half-inhibitory concentration (IC50) in test [1] was < 10 nM; on human ALK2 R206H it was < 100 nM.

Turning to `CCN1CC[C@H](c2ccc(-c3cc4c(N5CCN(C(=O)N6CC(C#N)C6)CC5)ccnn4c3)cc2)C1` [Compound 304], the figures for the IC50 (in test [1]; at human ALK2 R206H) were < 10 nM and < 100 nM, respectively.

Consider `O=C(C1CC1)N1CCN(c2ccnn3cc(-c4ccc([C@@H]5CCCN(C6CCC6)C5)cc4)cc23)CC1` [Compound 305], for which the IC50 in test [1] is < 10 nM; on human ALK2 R206H it was < 100 nM.

In the case of `O=C(C1CC1)N1CCN(c2ccnn3cc(-c4ccc(N5CCN6CCCCC6C5)cc4)cc23)CC1` (stereo not shown) [Compound 307], the IC50 in test [1] was < 10 nM; at human ALK2 R206H it was 100 to 500 nM.

Take `CC(C)N1CC2(CN(c3ccc(-c4cc5c(N6CCN(C(=O)C7CC7)CC6)ccnn5c4)cc3)C2)C1` [Compound 308]: the IC50 in test [1] is < 10 nM; on human ALK2 R206H, < 100 nM.

Regarding `N#CC1CN(C(=O)N2CCN(c3ccnn4cc(-c5ccc(OC6CCCNC6)cc5)cc34)CC2)C1` (stereo not shown) [Compound 309], the IC50 in test [1] was < 10 nM; at human ALK2 R206H, 100 to 500 nM.

For the compound `O=C(C1CC1)N1CCN(c2ccnn3cc(-c4ccc(C5CCN(C6COC6)CC5)cc4)cc23)CC1` [Compound 310], the figures for the IC50 (in test [1]; at human ALK2 R206H) were < 10 nM and 100 to 500 nM, respectively.

As to `CC(C)N1CCCC(c2ccc(-c3cc4c(N5CCN(C(=O)C6CCC6)CC5)ccnn4c3)cc2)C1` (stereo not shown) [Compound 312], the figures for the IC50 (in test [1]; at human ALK2 R206H) were < 10 nM and < 100 nM, respectively.
